Tests used:
[1] = tested on: MAO-B; details: cited from earlier work
[2] = PAMPA for blood-brain barrier permeation; type: in vitro ADME
[3] = target: T1, MAO-B (Homo sapiens, UniProt P27338); details: ratio of IC50 values within the S series
T1 sequence (P27338 1-520): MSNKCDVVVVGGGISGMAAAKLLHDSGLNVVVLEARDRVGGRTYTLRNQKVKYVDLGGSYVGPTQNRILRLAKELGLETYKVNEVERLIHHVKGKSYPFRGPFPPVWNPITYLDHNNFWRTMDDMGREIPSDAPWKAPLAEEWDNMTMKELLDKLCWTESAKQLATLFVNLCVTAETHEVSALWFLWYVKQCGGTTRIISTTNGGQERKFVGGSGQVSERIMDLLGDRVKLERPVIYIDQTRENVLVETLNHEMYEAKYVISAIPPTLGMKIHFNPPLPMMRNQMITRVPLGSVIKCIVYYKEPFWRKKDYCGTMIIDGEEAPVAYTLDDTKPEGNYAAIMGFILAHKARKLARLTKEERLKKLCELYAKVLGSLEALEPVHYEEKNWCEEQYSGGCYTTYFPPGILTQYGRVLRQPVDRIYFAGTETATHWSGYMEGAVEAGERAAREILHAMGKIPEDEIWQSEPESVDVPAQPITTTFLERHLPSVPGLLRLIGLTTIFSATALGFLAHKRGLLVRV

[4] = target: T1, MAO-B; test: Reversibility of MAO-B inhibition by dialysis; type: biochemical; parameters: purchased Sigma-Aldrich; details: dialysis, compared with safinamide and pargyline
[5] = target: T1, MAO-B; test: MAO-B inhibition kinetics (Lineweaver-Burk and secondary plots); type: biochemical; parameters: purchased Sigma-Aldrich
[6] = target: T1, MAO-B; test: biochemical
[7] = target: T2, hMAO-A (Homo sapiens, UniProt P21397); test: Inhibition of recombinant hMAO-A, kynuramine substrate, continuous absorbance method
T2 sequence (P21397 1-527): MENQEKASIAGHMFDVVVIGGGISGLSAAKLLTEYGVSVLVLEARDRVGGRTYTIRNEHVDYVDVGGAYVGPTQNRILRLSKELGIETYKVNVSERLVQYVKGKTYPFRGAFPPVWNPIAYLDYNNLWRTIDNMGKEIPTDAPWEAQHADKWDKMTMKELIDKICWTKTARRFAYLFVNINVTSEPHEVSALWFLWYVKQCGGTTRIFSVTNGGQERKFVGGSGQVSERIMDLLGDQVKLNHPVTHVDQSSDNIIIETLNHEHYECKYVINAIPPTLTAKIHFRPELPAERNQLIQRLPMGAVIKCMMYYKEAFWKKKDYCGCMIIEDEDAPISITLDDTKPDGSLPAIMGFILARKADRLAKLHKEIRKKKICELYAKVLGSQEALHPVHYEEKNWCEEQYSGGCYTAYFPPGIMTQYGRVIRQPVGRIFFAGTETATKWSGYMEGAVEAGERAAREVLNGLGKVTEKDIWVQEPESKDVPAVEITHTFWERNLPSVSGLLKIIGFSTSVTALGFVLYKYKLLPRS

Experimental Pe ([2]; PAMPA-BBB, pH 7.4) [×10⁻⁶ cm/s]	Papp ([2]; PAMPA-BBB, pH 7.4, read-out: Experimental Pe) [×10⁻⁶ cm/s]	Times higher MAO-B inhibition than other derivatives [3]	Reversibility of MAO-B inhibition [4]	Type of MAO-B inhibition ([5]; LB plots, five substrate and three inhibitor concentrations)	Ki ([5]; secondary plot of LB slopes, benzylamine substrate) [nM]	IC50 [6] [nM]	remaining activity at 10 µM ([6]; read-out: Residual Activity at 10 µM (%) MAO-B) [%]	IC50 [7] [nM]	remaining activity at 10 µM ([7]; read-out: Residual Activity at 10 µM (%) MAO-A) [%]	SMILES	IC50 [1] [nM]	Prediction (BBB permeation class) ([2]; class from Pe)
–	–	–	–	–	–	–	–	–	–	O=C(Cn1nc(N2CCOCC2)ccc1=O)NN=Cc1ccc(Cl)cc1 [TR16]	170	–
5.75	5.75 ± 0.13	4.82–53.94 times	reversible	competitive	155 ± 50	203 ± 4	-24.6 ± 8.51	3860 ± 770	25.6 ± 3.85	O=C(Cn1nc(N2CCC(Cc3ccccc3)CC2)ccc1=O)NN=Cc1cccc(Cl)c1 [Compound S5, N′-3-chlorobenzylidene-2-(3-(4-benzylpiperidin-1-yl)-6-oxopyridazin-1(6H)-yl)acetohydrazide]	–	CNS+ (Pe (10^−6 cm·s^−1) > 4.00: CNS+ (high permeation))
